Values quoted from earlier work, collected in patent US12419869B2, “Methods of treating multiple sclerosis” (Vanda Pharmaceuticals Inc., priority 2021, dated 2025).

Tested on: adult subjects with relapsing MS
Conditions: comparison values; cited from earlier work

SMILES	ECG HR effect: time of nadir post-dose (other S1P modulators) [h]
CCCCCCCCc1ccc(CCC(N)(CO)CO)cc1 [Fingolimod]	~6
CCc1cc(/C(C)=N/OCc2ccc(C3CCCCC3)c(C(F)(F)F)c2)ccc1CN1CC(C(=O)O)C1 [Siponimod]	3 to 4
